Earlier results, collected in patent US6743821B2, “Glycerol-lactate esters for use as an energy supplement during exercise and recovery” (priority 2001, dated 2004).

What was measured:
[1] = blood of Wistar rats
isolated working hearts = details: concentrated sodium lactate added to hearts from shocked animals

SMILES | conversion of the infused tracer in the blood [1] | performance of isolated working hearts (isolated working hearts)
[13CH3]C(=O)C(=O)O [[3-^13C]pyruvate] | quickly converted to [3-^13C]lactate | 
CC(O)C(=O)[O-].[Na+] (centres unmarked) [sodium lactate] |  | significantly enhanced
